What was measured:
[1] = cited from earlier work; for crossing of the blood-brain barrier / access to the CNS: after administration
LAT1 transporter = biological target: T1, LAT1 transporter (Homo sapiens, UniProt Q01650); experiment: AV-101 uptake in HEK-293 cells overexpressing LAT1; assay type: cell-based
T1 construct: expressed in transfected cells; host or cells: HEK-293
From the text: The L-Type Amino Acid Transporter 1 (LAT1, SLC7A5) is part of the SLC7 family and forms a heterodimer with CD98 via a disulphide bond (Mastroberardino, L. et al. Amino-acid transport by heterodimers of 4F2hc/CD98 and members of a permease family. Nature 395, 288-291, doi: 10.1038/26246 (1998)). CD98 (4F2hc, SLC3A2) is a type II glycoprotein that functions as a chaperone for LAT1, stabilizing and facilitating its translocation to the plasma membrane. LAT1 is the functional unit of the complex (Napolitano, L. et al. LAT1 is the transport competent unit of the LAT1/CD98 heterodimeric amino acid transporter. The international journal of biochemistry & cell biology, doi: 10.1016/j.biocel.2015.08.004 (2015)) and substrates include a range of large neutral amino acids such as tyrosine, leucine, isoleucine, valine and phenylalanine as well as pharmaceutical drugs including L-DOPA and gabapentin. (Dickens, D. et al. Transport of gabapentin by LAT1 (SLC7A5). Biochem Pharmacol 85, 1672-1683, doi: 10.1016/j.bcp.2013.03.022 (2013); Uchino, H. et al. Transport of amino acid-related compounds mediated by L-type amino acid transporter 1 (LAT1): insights into the mechanisms of substrate recognition. Molecular pharmacology 61, 729-737 (2002)). The SLC7A5 locus with rsid rs28582913 has a single nucleotide polymorphism, wherein the minor allele, T instead of C, at position 87843494 on chromosome 16, is present in approximately 18-56% of the population depending on ethnicity (https://www.ncbi.nlm.nih.gov/snp/rs28582913#frequency_tab), and results in a 1.94 fold increase in the kynurenine metabolite. […] Additionally, physiological amino acids reduce LAT1 mediated transport of AV-101.

[2] = test system: Human brain endothelial cells; experiment: AV-101 uptake in human brain endothelial cells; assay type: cell-based
From the text: The L-Type Amino Acid Transporter 1 (LAT1, SLC7A5) is part of the SLC7 family and forms a heterodimer with CD98 via a disulphide bond (Mastroberardino, L. et al. Amino-acid transport by heterodimers of 4F2hc/CD98 and members of a permease family. Nature 395, 288-291, doi: 10.1038/26246 (1998)). CD98 (4F2hc, SLC3A2) is a type II glycoprotein that functions as a chaperone for LAT1, stabilizing and facilitating its translocation to the plasma membrane. LAT1 is the functional unit of the complex (Napolitano, L. et al. LAT1 is the transport competent unit of the LAT1/CD98 heterodimeric amino acid transporter. The international journal of biochemistry & cell biology, doi: 10.1016/j.biocel.2015.08.004 (2015)) and substrates include a range of large neutral amino acids such as tyrosine, leucine, isoleucine, valine and phenylalanine as well as pharmaceutical drugs including L-DOPA and gabapentin. (Dickens, D. et al. Transport of gabapentin by LAT1 (SLC7A5). Biochem Pharmacol 85, 1672-1683, doi: 10.1016/j.bcp.2013.03.022 (2013); Uchino, H. et al. Transport of amino acid-related compounds mediated by L-type amino acid transporter 1 (LAT1): insights into the mechanisms of substrate recognition. Molecular pharmacology 61, 729-737 (2002)). […]

[3] = test system: depression, major depressive disorder; experiment: Treatment of depression / MDD in genotyped subjects; assay type: in vivo, human
From the text: In subjects with the BDNF variant, the A allele of the SNP rs6265 a higher dose of the L-4-CI-KYN results in the mood-enhancing or anti-depressive response. Subjects affirmatively report feelings of well-being. This is consistent with reports that the glutamatergic system contributes to the pathophysiology of depression and that stress can induce changes in NMDA receptors. See, for example, Calabrese, et al., PloS one vol. 7,5 (2012): e37916. Twenty-five subjects, both male and female, ages 18 to 65, with a diagnosis of MDD are treated with either L-4-CI-KYN (1,080 or 1,440 mg/day given orally) for 2 weeks, similar in design to similar studies. See e.g., Ibrahim et al. J Clin Psychopharmacol. 2012 August; 32(4): 551-557; Zarate et al. Biol Psychiatry. 2013 Aug. 15; 74(4):257-64; Zarate et al. Arch Gen Psychiatry. 2006 August; 63(8):856-64; Zarate et al. 2005 Biological psychiatry 57 (4), 430-432. The subjects are pre-screened to be positive for at least one of the following variant SNPs, the T allele of SNP rs61825638, the T allele of SNP rs28582913, or the C allele of rs2121337, or positive for the G allele of rs6265. In addition, a control group of twenty-five subjects is pre-screened as lacking any of: the T allele of SNP rs61825638, the T allele of SNP rs28582913, or the C allele of rs2121337, or lacking the G allele of SNP rs6265. […] Montgomery et al. 1979, Brit. J. Psych., 134:382-389. […]

T1 sequence (Q01650 whole entry): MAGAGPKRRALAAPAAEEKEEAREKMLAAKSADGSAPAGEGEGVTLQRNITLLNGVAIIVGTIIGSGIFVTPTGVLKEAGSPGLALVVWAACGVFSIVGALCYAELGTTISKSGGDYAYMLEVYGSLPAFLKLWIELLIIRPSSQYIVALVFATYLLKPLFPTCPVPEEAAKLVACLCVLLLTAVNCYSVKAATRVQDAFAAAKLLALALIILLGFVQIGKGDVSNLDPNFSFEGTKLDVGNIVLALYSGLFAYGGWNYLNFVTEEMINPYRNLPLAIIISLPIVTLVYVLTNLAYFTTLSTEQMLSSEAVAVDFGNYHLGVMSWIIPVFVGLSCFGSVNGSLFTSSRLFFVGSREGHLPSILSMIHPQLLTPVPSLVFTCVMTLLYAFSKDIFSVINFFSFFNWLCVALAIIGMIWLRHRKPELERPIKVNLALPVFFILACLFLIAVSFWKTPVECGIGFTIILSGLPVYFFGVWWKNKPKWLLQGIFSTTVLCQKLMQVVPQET
T1 sequence (P08195 102-630 partner): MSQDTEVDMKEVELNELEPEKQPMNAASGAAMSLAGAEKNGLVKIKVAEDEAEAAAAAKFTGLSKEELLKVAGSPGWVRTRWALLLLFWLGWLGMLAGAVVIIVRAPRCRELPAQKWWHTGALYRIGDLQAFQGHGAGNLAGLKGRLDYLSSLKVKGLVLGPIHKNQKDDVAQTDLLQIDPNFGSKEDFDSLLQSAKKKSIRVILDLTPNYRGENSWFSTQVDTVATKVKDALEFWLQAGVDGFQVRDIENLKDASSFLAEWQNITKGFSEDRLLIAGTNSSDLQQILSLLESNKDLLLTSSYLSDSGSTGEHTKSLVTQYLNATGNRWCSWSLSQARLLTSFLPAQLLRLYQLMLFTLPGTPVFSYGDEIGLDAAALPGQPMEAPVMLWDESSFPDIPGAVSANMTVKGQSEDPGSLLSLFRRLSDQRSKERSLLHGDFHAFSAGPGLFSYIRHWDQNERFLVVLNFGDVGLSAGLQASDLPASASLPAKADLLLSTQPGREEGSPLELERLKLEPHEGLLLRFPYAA

Compound	crossing of the blood-brain barrier / access to the CNS [1]	substrate status for the LAT1 transporter (LAT1 transporter)	AV-101 uptake (LAT1 transporter; HEK-293 cells overexpressing LAT1)	AV-101 uptake [2]	HDRS and/or MADRS total scores ([3]; MDD subjects, 1,080 or 1,440 mg/day orally for 2 weeks)	mood enhancing or anti-depressive activity ([3]; subjects with KMO rs61825638 T, SLC7A5 rs28582913 T or ACMSD rs2121337 C variant)	conversion to 7-chlorokynurenic acid ([1]; within activated astrocytes)	effect on AV-101 uptake (LAT1 transporter; LAT1 inhibitor added, HEK-293 cells overexpressing LAT1)	effect on AV-101 uptake ([2]; in the presence of JPH203)
O=C(O)c1cc(O)c2ccc(Cl)cc2n1 [7-chlorokynurenic acid, reference compound]	does not cross the blood-brain barrier								
Nc1cc(Cl)ccc1C(=O)CC(N)C(=O)O [L-4-CI-KYN, L-4-chlorokynurenine]	readily gains access to the central nervous system	substrate for the LAT1 transporter	substantial increase	significant uptake	significant decrease	observed for a higher number of subjects, or for the same number of patients but at a lower dose	efficiently converted		
Nc1cc(COc2c(Cl)cc(C[C@H](N)C(=O)O)cc2Cl)c2oc(-c3ccccc3)nc2c1 [JPH203, reference compound]								substantially reduced	significantly diminished

Reference: patent US20220202756A1, “GENETIC VARIANTS ASSOCIATED WITH RESPONSE TO TREATMENT OF NEUROLOGICAL DISORDERS” (VISTAGEN THERAPEUTICS, INC., priority 2019, published 2022)
